Reference: article PMC5517430, “2,3,7,8-Tetrachlorodibenzo-p-dioxin (TCDD)-elicited effects on bile acid homeostasis: Alterations in biosynthesis, enterohepatic circulation, and microbial metabolism” (Scientific Reports, 2017)
Values joined by “and” are separate entries in the source; they are usually repeats but may differ in a detail not shown here. Equal entries are not always repeated.

Tests used:
bile acids = test: HRAM-LC-MS analysis of bile acids in liver, serum and feces; type: in vivo, mouse; details: male mice
Procedure: Serum (10 µL) was added to 10 µL of a 20 ng/µL stock solution of deuterated (d4) glycochenodeoxycholic acid (GCDCA, from Steraloids, Inc.) in methanol, and extracted with ice-cold methanol as previously described. Frozen liver samples (50 mg) or dried fecal pellets (50 mg) were combined with 10 µL of 20 ng/µL d4-GCDCA stock solution and 1.0 mL of ice-cold methanol, and homogenized with 0.5 mm zirconium oxide beads using an air-cooled Bullet Blender (NextAdvance). Extracts were dried under vacuum, reconstituted in 2.0 mL of 50% methanol, filtered through 0.2 µm nylon membranes (Pall Life Sciences), and stored at −80 °C.
Bile acids were analyzed by high resolution/accurate mass (HRAM)-LC-MS using an Agilent 1260 capillary HPLC coupled to a Thermo Scientific LTQ-Orbitrap Velos mass spectrometer. Extracts (2 µL) were injected into water containing 0.1% formic acid, and loaded onto an inline peptide Opti-Trap (Optimize Technologies) for 3.0 min at 5 µL/min for desalting and concentration. Bile acids were then eluted by a 30 min water/acetonitrile gradient from 98% water containing 0.1% formic acid to 95% acetonitrile containing 0.1% formic acid (modified from ref. [73]) and separated by a ProntoSil C18AQ 200 µm × 50 mm, 3 u column (nanoLCMS Solutions) at a flow rate of 2 µL/min. The column eluent was introduced to the LTQ-Orbitrap Velos mass spectrometer by an Advance nano-ESI source (Michrom BioResources) at a spray voltage of −1.7 kV. High resolution (R = 100,000 at 400 m/z) negative ion mass spectra were collected over 300–900 m/z. The ion transfer tube of the mass spectrometer was maintained at 250 °C, and the S-lens was set to 50%. Appropriate sample dilution factors were determined empirically to ensure a linear range of detector response. Chromatographic peak alignment, feature detection, quantitation and bile acid identification were performed using MAVEN[75] and SECD-LIMSA[76] software. All bile acids were identified by comparison of retention time and accurate mass data against reference standards. Relative quantitation was performed against the deuterated GCDCA internal standard. TCDD-elicited changes in bile acid species are reported as fold changes relative to vehicle controls.

[1] = test system: hepatic taurine and glycine; parameters: method as in PMID 26582802; details: female mice, cited from earlier work
[2] = parameters: method as in PMID 19660807, PMID 8145287; details: humans; cited from earlier work
hepatic cholesterol = test system: hepatic cholesterol; parameters: method as in PMID 28238261; details: male C57BL/6 mice, 30 µg/kg TCDD every 4 d for 28 d, cited from earlier work
male C57BL/6 mice = test: Whole gut transit time with carmine red dye; type: in vivo, mouse
Procedure: At 27d after the initial dose (PND55), whole gut transit time (WGTT) was determined using carmine red dye, which cannot be intestinally absorbed. At time 0 (t0), mice were orally gavaged with 150 µL of carmine red solution (6% carmine red dye suspended in 0.5% methylcellulose). Fecal pellets were monitored continuously for the presence of carmine red. WGTT represents the time interval between t0 and the first observance of carmine red dye in the fecal pellets.

Gpbar1 = test: Hepatic qRT-PCR; type: in vivo; details: Mus musculus; male mice, 30 µg/kg TCDD every 4 d for 28 d; read-out: Gpbar1 hepatic expression (qRT-PCR), fold induction
Procedure: Given the low (≤10) read counts for Gpbar1 in the RNA-Seq dataset, differential expression was confirmed by qRT-PCR[13]. Total hepatic RNA was reverse transcribed by SuperScript II (Invitrogen) using oligo dT primer according to the manufacturer’s protocol. PCR amplification was conducted on a Bio-Rad CFX Connect Real-Time PCR Detection System. Gene expression relative to vehicle control was calculated using the 2^−∆∆CT method, where each sample was normalized to the geometric mean of 3 housekeeping genes (Actb, Gapdh, and Hprt). Gene expression data are plotted relative to vehicle control. Forward and reverse primer sequences are provided in Supplementary Table S2.

AhR = test: Hepatic AhR ChIP-Seq (AhR genomic enrichment); type: in vivo, mouse
Procedure: Putative dioxin response elements (pDREs) with matrix similarity scores (MSS) ≥ 0.856 were previously identified. ChIP-Seq was previously performed on liver samples from male C57BL/6 mice 2 h after a single bolus oral gavage of 30 µg/kg TCDD[33], [70]. Briefly, cross-linked DNA was immunoprecipitated with either rabbit IgG or anti-AhR (H-211, sc-5579; Santa Cruz, CA). Libraries were prepared using the MicroPlex kit (Diagenode), pooled, and sequenced at a depth of a ~30 M on an Illumina HiSeq 2500 at the MSU RTSF Genomics Core. Reads were mapped to the mouse reference genome (GRCm38 release 81) using Bowtie 2.0.0 and alignments converted to SAM format using SAMTools v0.1.2. Normalization and peak calling was performed using CisGenome[71], by comparing IgG control and AhR enriched samples (n = 5) using a bin size (−b) of 25 and boundary refinement resolution (−bw) of 1 with default parameters.

[3] = liver, 10 µg/kg TCDD every 4 d for 28 d, relative to vehicle
[4] = liver, 30 µg/kg TCDD every 4 d for 28 d, relative to vehicle
[5] = liver, dose not stated, 3–30 µg/kg TCDD
[6] = liver, dose-dependent, 3–30 µg/kg TCDD
[7] = serum, 30 µg/kg TCDD every 4 d for 28 d, relative to vehicle
[8] = male mouse liver, 2 h after single oral gavage of 30 µg/kg TCDD

Question: For `Clc1cc2c(cc1Cl)Oc1cc(Cl)c(Cl)cc1O2` [TCDD, 2,3,7,8-tetrachlorodibenzo-p-dioxin], which “Deoxycholic acid disulfate DCA-di-SO4, Fold Change FECES” value (bile acids; feces, 30 µg/kg TCDD, relative to vehicle, n = 2 cages) is on record?
Answer: The value was 4.9 fold.

Question: What about the “Taurolithocholic acid TLCA, Fold Change FECES” value (bile acids; feces, 30 µg/kg TCDD, relative to vehicle, n = 2 cages, ∞ = detected in treated animals but not controls) of the same molecule?
Answer: The value was “undetectable in controls to detectable in treated mice”.

Question: And the “Fecal cholic acid 7-sulfate (CA-7-SO4), fold decrease” value (bile acids; feces, 30 µg/kg TCDD)?
Answer: The value was 55.2 fold.

Question: What about the “Fecal taurocholic acid 3-sulfate (TCA-3-SO4), fold decrease” value (bile acids; feces, 30 µg/kg TCDD) of the same molecule?
Answer: Its value is 10.3 fold.

Question: And the “Fecal α-MCA, fold decrease” value (bile acids; feces, 30 µg/kg TCDD)?
Answer: The value was 10.3 fold.

Question: And the “Total fecal bile acids, fold decrease” value (bile acids; feces, 30 µg/kg TCDD)?
Answer: Its value is 2.8 fold.

Question: And the “Taurolithocholic acid TLCA, Fold Change LIVER” value (bile acids; [3])?
Answer: The value was 72.1 fold.

Question: What about the “Total Bile Acids, Fold Change LIVER” value (bile acids; [3]) of the same molecule?
Answer: Its value is 2.1 fold.

Question: And the “Cholic acid CA, Fold Change LIVER” value (bile acids; [4])?
Answer: The value was 4.7 fold.

Question: What about the “Taurolithocholic acid TLCA, Fold Change LIVER” value (bile acids; [4]) of the same molecule?
Answer: Its value is > 200 fold and 233.8 fold.

Question: And the “Total Bile Acids, Fold Change LIVER” value (bile acids; [4])?
Answer: Its value is 4.6 fold.

Question: And the “Effect on hepatic CDCA” value (bile acids; liver, 3–30 µg/kg TCDD)?
Answer: The value was “no effect”.

Question: What about the “Effect on hepatic α/β-MCA” value (bile acids; liver, 3–30 µg/kg TCDD) of the same molecule?
Answer: Its value is “no effect”.

Question: And the “Hepatic glycocholic acid (GCA), fold increase” value (bile acids; [5])?
Answer: Its value is 3.9 fold.

Question: What about the “Hepatic tauro-α-muricholic acid (T-α-MCA), fold increase” value (bile acids; [5]) of the same molecule?
Answer: The value was 3.7 fold.

Question: And the “Hepatic taurocholic acid (TCA), fold increase” value (bile acids; [5])?
Answer: The value was 9.7 fold.

Question: What about the “Total hepatic conjugated primary bile acid levels, max fold increase” value (bile acids; [6]) of the same molecule?
Answer: The value was 4.7 fold.

Question: What about the “Total hepatic levels of conjugated secondary bile acids, max fold increase” value (bile acids; [6]) of the same molecule?
Answer: The value was 77.7 fold.

Question: And the “Cholic acid CA, Fold Change SERUM” value (bile acids; [7])?
Answer: The value was 58.2 fold.

Question: And the “Deoxycholic acid DCA, Fold Change SERUM” value (bile acids; [7])?
Answer: Its value is 79.7 fold.

Question: What about the “Glycocholic acid GCA, Fold Change SERUM” value (bile acids; [7]) of the same molecule?
Answer: The value was 134.4 fold.

Question: And the “Muricholic acid (α) α-MCA, Fold Change SERUM” value (bile acids; [7])?
Answer: Its value is 97.0 fold.

Question: What about the “Muricholic acid (β) β-MCA, Fold Change SERUM” value (bile acids; [7]) of the same molecule?
Answer: Its value is 52.8 fold.

Question: What about the “Taurocholic acid TCA, Fold Change SERUM” value (bile acids; [7]) of the same molecule?
Answer: Its value is 298.9 fold.

Question: What about the “Total Bile Acids, Fold Change SERUM” value (bile acids; [7]) of the same molecule?
Answer: Its value is 45.4 fold.

Question: And the “Hepatic taurine level, max fold increase” value ([1]; p = 0.05)?
Answer: Its value is 1.4 fold.

Question: What about the “Hepatic glycine level, max fold increase” value ([1]; p = 0.10) of the same molecule?
Answer: Its value is 20.3 fold.

Question: And the Half-life [2]?
Answer: The Half-life was 1–11 years.

Question: What about the “Hepatic cholesterol ester level, fold increase” value (hepatic cholesterol) of the same molecule?
Answer: The value was 11.3 fold.

Question: And the “Hepatic cholesterol level, fold increase” value (hepatic cholesterol; not confirmed by high resolution MS/MS)?
Answer: The value was 9.0 fold.

Question: And the “Whole gut transit time” value (male C57BL/6 mice; 30 µg/kg TCDD every 4 d, 27 d after initial dose, controls 2.5 h)?
Answer: Its value is 4.1 h.

Question: And the “Reduction in gut motility” value (male C57BL/6 mice; 30 µg/kg TCDD vs controls)?
Answer: The value was 1.6 fold.

Question: And the fold induction at 0.03 mg/kg (Gpbar1)?
Answer: Its fold induction at 0.03 mg/kg is 4.3.

Question: And the “Slc6a6 (TAUT) AhR Binding?” value (AhR; liver)?
Answer: Its value is “YES”.

Question: What about the “Slc10a1 (NTCP or LBAT) AhR Binding?” value (AhR; liver) of the same molecule?
Answer: The value was “YES”.

Question: And the “Slco2b1 (OATP2B1) AhR Binding?” value (AhR; liver)?
Answer: Its value is “YES”.

Question: And the “Soat1 AhR Binding?” value (AhR; liver)?
Answer: Its value is “YES”.

Question: And the “Soat2 AhR Binding?” value (AhR; liver)?
Answer: Its value is “YES”.

Question: What about the “Sqle AhR Binding?” value (AhR; liver) of the same molecule?
Answer: Its value is “YES”.

Question: What about the “Srebf2 AhR Binding?” value (AhR; liver) of the same molecule?
Answer: The value was “YES”.

Question: And the “Tm7sf2 AhR Binding?” value (AhR; liver)?
Answer: Its value is “YES”.

Question: What about the “AhR binding within Cyp8b1, fold enrichment” value (AhR; [8]) of the same molecule?
Answer: The value was 2.2 fold.

Question: What about the “AhR genomic binding at Cyp7a1, fold enrichment” value (AhR; [8]) of the same molecule?
Answer: Its value is 2.3 fold.

Question: And the “AhR genomic binding at the Hmgcr loci, fold increase” value (AhR; [8])?
Answer: Its value is 10.3 fold.
